Conditions: instrument: TW, calibrated with polyalanine and drug standards

Row | Structure (SMILES) | collision cross section (N2) ([M+H]+) | other results
1 | CC1(C)C2CC(=O)[C@]3(C)C(CC[C@@]4(C)[C@H](c5ccoc5)OC(=O)[C@H]5O[C@]543)[C@@]2(C)C(=O)C[C@H]1O (stereo partly specified) [1,7-DIDEACETOXY-1,7-DIOXO-3-DEACETYLKHIVORIN] | 199.7 Å² | 
2 | CC(=O)O[C@@H]1CC(=O)[C@@]2(C)C(CC(=O)[C@]3(C)C2CC[C@@]2(C)[C@H](c4ccoc4)OC(=O)C4OC423)C1(C)C (stereo partly specified) [1,7-DIDEACETOXY-1,7-DIOXOKHIVORIN] | 210.9 Å² | 
3 | COc1ccccc1N1CCNCC1 [1-(2-METHOXYPHENYL)PIPERAZINE] | 140.5 Å² | 
4 | CCCCCCCCCCCCCCCC(=O)OCC(O)CO (stereo unspecified) [1-MONOPALMITIN] |  | collision cross section (N2) ([M+Na]+): 195.9 Å²
5 | C[C@@H](N)[C@@H](O)c1ccccc1 [1R,2S-PHENYLPROPYLAMINE] |  | collision cross section (N2) ([M+H-H2O]+): 127.8 Å²
6 | O=C(/C=C/c1ccccc1)c1ccc(O)cc1O [2',4'-DIHYDROXYCHALCONE] | 153.5 Å² | 
7 | CCOc1ccc(C(=O)c2ccc(OC)c(O)c2O)cc1 [2,3-DIHYDROXY-4-METHOXY-4'-ETHOXYBENZOPHENONE] | 164 Å² | 
8 | COC1=CC(=O)C=C(OC)C1=O [2,6-DIMETHOXYQUINONE] | 129.5 Å² | 
9 | CC1(C)CC2C1CCC1(C)OC1CCC2(C)O (stereo unspecified) [2-HYDROXY-5 (6)EPOXY-TETRAHYDROCARYOPHYLLENE] |  | collision cross section (N2) ([M+H-H2O]+): 150.8 Å²
10 | S=c1[nH]c2ccccc2s1 [2-MERCAPTOBENZOTHIAZOLE] | 126.4 Å² | 
11 | COc1ccc2oc3ccccc3c(=O)c2c1 [2-METHOXYXANTHONE] | 142.4 Å² | 
12 | Cc1[nH]c2ccccc2c1CN(C)C [2-METHYL GRAMINE] | 140.6 Å² | 
13 | O=c1cccc2ccc(O)c(O)c2c1O [3,4,6-trihydroxy-5H-benzo[a]cyclohepten-5-one] | 134.7 Å² | 
14 | COc1ccc2c(=O)c(OC)c(-c3ccccc3)oc2c1 [3,7-DIMETHOXYFLAVONE] | 160.7 Å² | 
15 | CC(=O)OC1CC[C@@]2(C)C(CC[C@H]3[C@@H]4CC=C(C(C)=O)[C@@]4(C)C(=O)C[C@@H]32)C1 (stereo partly specified) [3-ACETOXYPREGN-16-EN-12,20-DIONE] | 189.5 Å² | 
16 | NCCc1ccc(O)c(O)c1 [3-HYDROXYTYRAMINE] | 127.7 Å² | 
17 | C=C1C2CC[C@@]3(C)[C@H](c4ccoc4)OC(=O)C[C@]13O[C@H]1CC(O)C(C)(C)C(CC(=O)OC)[C@@]21C (stereo partly drawn) [3alpha-HYDROXY-3-DEOXYANGOLENSIC ACID METHYL ESTER] | 204.6 Å² | 
18 | O=C(/C=C/c1ccccc1)c1ccc(O)cc1 [4'-HYDROXYCHALCONE] | 150.8 Å² | 
19 | COc1ccc(-c2cc(=O)c3ccccc3o2)cc1 [4'-METHOXYFLAVONE] | 152.1 Å² | 
20 | CCCCOc1cc(CC2CNC(=O)N2)ccc1OC (stereo unspecified) [4-(3-BUTOXY-4-METHOXYBENZYL)IMIDAZOLIDIN-2-ONE] | 174 Å² | 
21 | Cc1cc(O)cc(=O)o1 [4-HYDROXY-6-METHYLPYRAN-2-ONE] | 119.8 Å² | 
22 | O=C(O)CCCN1C(=O)c2cccc3cccc(c23)C1=O [4-NAPHTHALIMIDOBUTYRIC ACID] | 156.5 Å² | 
23 | Cc1cc(=O)oc2cc(O)cc(O)c12 [5,7-DIHYDROXY-4-METHYLCOUMARIN] | 134.4 Å² | 

Row | Structure (SMILES) | collision cross section (N2) ([M+H]+) | other results
24 | CC(C)CCC[C@@H](C)[C@H]1CC[C@H]2[C@@H]3CC[C@H]4C[C@@H](O)CC[C@]4(C)[C@H]3CC[C@]12C [5alpha-CHOLESTANOL] |  | collision cross section (N2) ([M+H-H2O]+): 209 Å²
25 | O=c1cc(-c2ccc(O)cc2)oc2ccc(O)cc12 [6,4'-DIHYDROXYFLAVONE] | 152.7 Å² | 
26 | NC(=O)c1ccc(N)nc1 [6-AMINONICOTINAMIDE] | 125.7 Å² | 
27 | C=C1C2CC[C@@]3(C)[C@H](c4ccoc4)OC(=O)C[C@]13O[C@H]1CC(=O)C(C)(C)[C@H](C(O)C(=O)OC)[C@@]21C (stereo partly specified) [6-HYDROXYANGOLENSIC ACID METHYL ESTER] | 207.6 Å² | 
28 | CN1[C@H]2CC(=O)C[C@@H]1C(O)C2 (stereo partly specified) [6-HYDROXYTROPINONE] | 131.6 Å² | 
29 | O=c1cc(-c2ccccc2)oc2cc(O)ccc12 [7-HYDROXYFLAVONE] | 148.9 Å² | 
30 | Oc1cccc2cccnc12 [8-HYDROXYQUINOLINE] | 123.6 Å² | 
31 | CC(=O)O[C@@H]1C[C@@]2(C)C(CC[C@@H]2C(C)=O)C2CCC3=CC(=O)CC[C@]3(C)C21 (stereo partly specified) [11a-ACETOXYPROGESTERONE] | 190.6 Å² | 
32 | CC(=O)[C@H]1CC[C@H]2[C@@H]3CCC4=CC(=O)CC[C@]4(C)[C@H]3C(OC(=O)CCC(=O)O)C[C@]12C (stereo partly drawn) [11alpha-HYDROXYPROGESTERONE HEMISUCCINATE] | 201.8 Å² | 
33 | NC(=O)c1ncn([C@@H]2O[C@H](CO)[C@@H](O)[C@H]2O)c1N [ACADESINE] | 153 Å² | 
34 | C[C@H]1O[C@H](O[C@H]2[C@H](O)[C@@H](O)[C@@H](O[C@H]3[C@H](O)[C@@H](O)C(O)O[C@@H]3CO)O[C@@H]2CO)[C@H](O)[C@@H](O)[C@@H]1N[C@H]1C=C(CO)[C@@H](O)[C@H](O)[C@H]1O (stereo partly specified) [ACARBOSE] | 231 Å² | 
35 | CC(=O)Nc1ccc(O)cc1 [ACETAMINOPHEN] | 129.7 Å² | 
36 | CC(=O)Nc1ccccc1 [ACETANILIDE] | 125 Å² | 
37 | CC(=O)N[C@@H](CCC(=O)O)C(=O)O [ACETYLGLUTAMIC ACID] |  | collision cross section (N2) ([M+Na]+): 141.7 Å²
38 | CC(=O)N[C@@H](Cc1c[nH]c2ccccc12)C(N)=O [ACETYLTRYPTOPHANAMIDE] |  | collision cross section (N2) ([M+Na]+): 159.3 Å²
39 | CCCCC[C@H](CC(=O)NO)C(=O)N[C@H](C(=O)N1CCC[C@H]1CO)C(C)C [ACTINONIN] | 194.1 Å² | 
40 | CCCCCCCCCCCCCCCCC(C(=O)O)C(O)(CC(=O)O)C(=O)O (stereo unspecified) [AGARIC ACID] |  | collision cross section (N2) ([M+Na]+): 213.1 Å²
41 | CC(C)(C)NCC(O)c1ccc(O)c(CO)c1 (stereo unspecified) [ALBUTEROL] | 158.4 Å² | 
42 | O=C(O)CCCCCCCC(O)C(O)CCCCCCO (stereo unspecified) [ALEURETIC ACID] |  | collision cross section (N2) ([M+Na]+): 175.9 Å²
43 | COc1cc2nc(N(C)CCCNC(=O)C3CCCO3)nc(N)c2cc1OC (stereo unspecified) [ALFLUZOSIN] | 193.9 Å² | 
44 | COc1cc(OC)c2c(c1)OC(c1ccccc1)CC2=O (stereo unspecified) [ALPINETIN METHYL ETHER] | 162.8 Å² | 
45 | C=CCSCC1Nc2cc(Cl)c(S(N)(=O)=O)cc2S(=O)(=O)N1 (stereo unspecified) [ALTHIAZIDE] | 181.5 Å² | 
46 | C=CC[C@]1(O)CC[C@H]2[C@@H]3CCC4=CC(=O)CCC4=C3C=C[C@@]21C [ALTRENOGEST] | 177 Å² | 

Reference: the C3SDB collision cross section collection
